Assays:
KRas G12C [1] = biological target: KRas G12C (Homo sapiens, UniProt P01116, C118S/C51S/C80L/G12C); assay: KRas G12C Modification Assay (LCMS detection of covalent adduct); type: binding
Procedure: A 10 μL aliquot of each protein solution was then transferred to a 384 well microtiter plate. Initial compound stocks were generated at fifty times their desired final assay concentration in DMSO.
Exemplary compounds of Formula (I) were diluted 25-fold into K-Ras Assay Buffer to a final of two times their final concentration. A 10 μL aliquot of each diluted compound solution was then added to each of the protein solutions in the microtiter plate to initiate reaction. […] At each time point, the reactions were quenched with 20 μL of a 25 mM acetic acid solution. […] Once all reactions were quenched, the plates were heat sealed and the samples were injected into a LC/MS system for data acquisition.
Samples were injected in their liquid phase onto a C-3 reverse phase column to remove assay buffer and prepare the samples for mass spectrometer. The proteins were eluted from the column using an acetonitrile gradient and fed directly into the mass analyzer. Initial raw data analysis took place in Agilent MassHunter software immediately post data acquisition.
Raw data analysis of the intact protein was exclusively a deconvolution of the multiple charge states of each protein in solution using a maximum entropy deconvolution provided in Mass Hunter. To minimize complexity, only the data over limited mass ranges were considered for analysis, with a minimum of one Dalton mass step intervals. The heights of all masses identified during raw data analysis were exported to be further analyzed in Spotfire® data analysis software.
Final data analysis was a multistep process in the Spotfire® data analysis software package. Briefly, each protein mass was calculated as a percent of the total signal of that sample, that percentage was then normalized to the percentage of signal of the protein in the absence of reactive compounds. Those normalized signals were reported as normalized percent of control (POC). […] Key: “A”≤25% POC; “B”>25% POC-≤50% POC; “C”>50% POC and ND=not determined.

KRas G12C [2] = biological target: KRas G12C (Homo sapiens, UniProt P01116, G12C); assay: Cellular inhibition of KRas G12C measured by Phospho-ERK in NCI-H358 cells; type: cell-based; conditions: pERK(Thr202/Tyr204) normalized with GAPDH, NCI-H358 cells, 3 hours; read-out: IC50
Summary of the method: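 Ratio of phospho-ERK(Thr202/Tyr204) to GAPDH, read by near-infrared secondary antibodies on fixed, permeabilised NCI-H358 cells, expressed relative to DMSO control. Compound exposure was 3 h at 0.5% DMSO. IC50 values come from 4-parameter curve fits.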

[3] = normalized percent of control, 5 μM concentration for 3 hours

SMILES	IC50 (KRas G12C [2]) [nM]	POC (KRas G12C [1]; [3])	POC (KRas G12C [1]; 5 µM)
C=CC(=O)N1CCN(c2nc(OC[C@H]3CCCN3C)nc3c2CCN(c2cccc4ccccc24)C3)C[C@@H]1CC#N [Example 267, 2-((S)-1-acryloyl-4-(2-(((R)-1-methylpyrrolidin-2-yl)methoxy)-7-(naphthalen-1-yl)-5,6,7,8-tetrahydropyrido[3,4-d]pyrimidin-4-yl)piperazin-2-yl)acetonitrile]	0.1 to 1000	–	C (key: “A”≤25% POC; “B”>25% POC-≤50% POC; “C”>50% POC)
Cc1cccc(N2CCc3c(nc(OC[C@@H]4CCCN4C)nc3N3CCN(C(=O)C4=CCC4)[C@@H](CC#N)C3)C2)c1C [Example 392, 2-((S)-1-(cyclobut-1-ene-1-carbonyl)-4-(7-(2,3-dimethylphenyl)-2-(((S)-1-methylpyrrolidin-2-yl)methoxy)-5,6,7,8-tetrahydropyrido[3,4-d]pyrimidin-4-yl)piperazin-2-yl)acetonitrile]	> 1000	C (“C”>50% POC)	–
C=CC(=O)N1CCN(c2nc(OC[C@@H]3CCCN3C)nc3c2CCN(c2c(C)c(C)cc4[nH]c(=O)[nH]c24)C3)CC1 [Example 456, 5,6-dimethyl-4-[2-[[(2S)-1-methylpyrrolidin-2-yl]methoxy]-4-(4-prop-2-enoylpiperazin-1-yl)-6,8-dihydro-5H-pyrido[3,4-d]pyrimidin-7-yl]-1,3-dihydrobenzimidazol-2-one]	> 1000	C (“C”>50% POC)	–
C=CC(=O)N1CCN(c2nc(OC[C@@H]3CCCN3C)nc3c2CCN(c2c(C)c(C)cc4[nH]ncc24)C3)C[C@@H]1CC#N [Example 462, 2-[(2S)-4-[7-(5,6-dimethyl-1H-indazol-4-yl)-2-[[(2S)-1-methylpyrrolidin-2-yl]methoxy]-6,8-dihydro-5H-pyrido[3,4-d]pyrimidin-4-yl]-1-prop-2-enoyl-piperazin-2-yl]acetonitrile]	0.1 to 1000	C (“C”>50% POC)	–

The next lines start with results.

IC50 (KRas G12C [2]) [nM]	POC (KRas G12C [1]; [3])	SMILES	POC (KRas G12C [1]; 5 µM)
> 1000	C (“C”>50% POC)	C=CC(=O)N1CCN(c2nc(OC[C@@H]3CCCN3C)nc3c2CCN(c2ncccc2C(F)(F)F)C3)CC1CC#N (stereo partly drawn) [Example 373, 2-(1-acryloyl-4-(2-(((S)-1-methylpyrrolidin-2-yl)methoxy)-7-(3-(trifluoromethyl)pyridin-2-yl)-5,6,7,8-tetrahydropyrido[3,4-d]pyrimidin-4-yl)piperazin-2-yl)acetonitrile]	–
0.1 to 1000	C (“C”>50% POC)	C=CC(=O)N1CCN(c2nc(OC[C@H]3CCN(C)C3)nc3c2CCN(c2cccc4ccccc24)C3)CC1CC#N (stereo partly drawn) [Example 399, 2-(1-acryloyl-4-(2-(((S)-1-methylpyrrolidin-3-yl)methoxy)-7-(naphthalen-1-yl)-5,6,7,8-tetrahydropyrido[3,4-d]pyrimidin-4-yl)piperazin-2-yl)acetonitrile]	–
0.1 to 1000	C (“C”>50% POC)	C=CC(=O)N1CCN(c2nc(OC[C@@H]3CCCN3C)nc3c2CCN(c2cccc4c2OCC4)C3)C[C@@H]1CC#N [Example 435, 2-((S)-1-acryloyl-4-(7-(2,3-dihydrobenzofuran-7-yl)-2-(((S)-1-methylpyrrolidin-2-yl)methoxy)-5,6,7,8-tetrahydropyrido[3,4-d]pyrimidin-4-yl)piperazin-2-yl)acetonitrile]	–
0.1 to 1000	C (“C”>50% POC)	C=CC(=O)N1CCN(c2nc(OC[C@@H]3CCCN3C)nc3c2CCN(c2c(C)c(C)cc4[nH]ccc24)C3)C[C@@H]1CC#N [Example 466, 2-((S)-1-acryloyl-4-(7-(5,6-dimethyl-1H-indol-4-yl)-2-(((S)-1-methylpyrrolidin-2-yl)methoxy)-5,6,7,8-tetrahydropyrido[3,4-d]pyrimidin-4-yl)piperazin-2-yl)acetonitrile]	–

Reference: patent US10689377B2 (Mirati Therapeutics, Inc., priority 2017, dated 2020)
